Tests used:
hPPARalpha = target: T1, hPPARalpha (Homo sapiens, UniProt Q07869); test: Gal4-hPPARalpha transactivation assay in COS-7 cells (luciferase); type: cell-based
T1 construct: Gal4-hPPARα(LBD); Gal4 (fusion partner); expressed in transfected cells; host or cells: COS-7 (monkey kidney)
T1 sequence (Q07869 239-466 limits assumed): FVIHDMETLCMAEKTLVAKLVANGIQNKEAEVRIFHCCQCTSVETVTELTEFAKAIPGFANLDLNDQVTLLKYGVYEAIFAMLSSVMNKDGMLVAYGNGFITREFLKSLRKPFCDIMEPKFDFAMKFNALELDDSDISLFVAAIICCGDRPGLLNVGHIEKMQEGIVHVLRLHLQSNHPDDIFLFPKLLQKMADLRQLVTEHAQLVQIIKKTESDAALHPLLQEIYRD
Outline: (§1)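 COS-7 cells transiently co-transfected with Gal4-hPPAR chimeras and a Gal4(RE)_TkpGL3 luciferase reporter (1/50 ratio) were seeded at 20,000 cells/well for 4 h, then treated in 2% lipid-free synthetic serum medium (0.1% DMSO). EC50 and Hill slope came from fitted luciferase curves. Emax is relative to fenofibrate 100 μM (α), rosiglitazone 10 μM (γ) or GW501516 1 μM (δ).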

hPPARgamma = target: T2, hPPARgamma (Homo sapiens, UniProt P37231); test: Gal4-hPPARgamma transactivation assay in COS-7 cells (luciferase); type: cell-based
T2 construct: Gal4-hPPARγ(LBD); Gal4 (fusion partner); expressed in transfected cells; host or cells: COS-7 (monkey kidney)
T2 sequence (P37231 238-503 limits assumed): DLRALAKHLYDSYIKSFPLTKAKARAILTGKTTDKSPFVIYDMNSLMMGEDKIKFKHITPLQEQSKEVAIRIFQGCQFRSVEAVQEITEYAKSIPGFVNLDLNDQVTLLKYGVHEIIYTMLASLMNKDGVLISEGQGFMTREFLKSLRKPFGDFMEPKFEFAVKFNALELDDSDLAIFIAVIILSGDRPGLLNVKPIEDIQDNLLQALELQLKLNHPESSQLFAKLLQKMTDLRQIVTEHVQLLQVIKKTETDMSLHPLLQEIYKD
Outline: as §1

hPPARdelta = target: T3, hPPARdelta (Homo sapiens, UniProt Q03181); test: Gal4-hPPARdelta transactivation assay in COS-7 cells (luciferase); type: cell-based
T3 construct: Gal4-hPPARδ(LBD); Gal4 (fusion partner); expressed in transfected cells; host or cells: COS-7 (monkey kidney)
T3 sequence (Q03181 211-439 limits assumed): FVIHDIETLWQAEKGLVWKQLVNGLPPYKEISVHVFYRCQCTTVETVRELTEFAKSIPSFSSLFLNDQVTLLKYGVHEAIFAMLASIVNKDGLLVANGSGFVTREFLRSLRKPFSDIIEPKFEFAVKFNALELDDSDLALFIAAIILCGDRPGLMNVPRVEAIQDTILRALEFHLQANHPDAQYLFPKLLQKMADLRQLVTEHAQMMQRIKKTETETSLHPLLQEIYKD
Outline: as §1

[1] = test system: brain amyloid-beta levels; test: Alzheimer's disease model (APPPS1 mice): brain amyloid-beta levels by ELISA; type: in vivo, mouse; settings: 60 days, +/- standard deviation
[2] = maximal relative activation vs reference, listed as cpd 14-1-2

COC(c1ccc(OC(F)(F)F)cc1)C1CC1c1cc(C)c(OC(C)(C)C(=O)O)c(C)c1 (single isomer, unassigned) [Cpd 14-1-2, 2-(4-(2-(methoxy(4-(trifluoromethoxy)phenyl)methyl)cyclopropyl)-2,6-dimethylphenoxy)-2-methylpropanoic acid]
EC50 (hPPARalpha; Gal4-hPPARα(LBD) transactivation): 12 nM
Gal4-hPPARα(LBD) TOP (% ref) (hPPARalpha; [2]): 46 % ref
EC50 (hPPARgamma; Gal4-hPPARγ(LBD) transactivation): 11 nM
Gal4-hPPARγ(LBD) TOP (% ref) (hPPARgamma; [2]): 82 % ref
EC50 (hPPARdelta; Gal4-hPPARδ(LBD) transactivation): 4 nM
Gal4-hPPARδ(LBD) TOP (% ref) (hPPARdelta; [2]): 90 % ref
amyloid-beta peptide Aβ 1-38, mean reduction from untreated APPPS1 mice ([1]; 1 mpk per day): 76 % +/− 16 % (**)
amyloid-beta peptide Aβ 1-40, mean reduction from untreated APPPS1 mice ([1]; 1 mpk per day): 55 % +/− 17 % (**)
amyloid-beta peptide Aβ 1-42, mean reduction from untreated APPPS1 mice ([1]; 1 mpk per day): 56 % +/− 19 % (**)
amyloid-beta peptide Aβ 1-38, mean reduction from untreated APPPS1 mice ([1]; 10 mpk per day): 97 % +/− 3 % (**)
amyloid-beta peptide Aβ 1-40, mean reduction from untreated APPPS1 mice ([1]; 10 mpk per day): 72 % +/− 14 % (**)
amyloid-beta peptide Aβ 1-42, mean reduction from untreated APPPS1 mice ([1]; 10 mpk per day): 74 % +/− 14 % (**)

From patent US9115073B2, “1,3-diphenylpropane derivatives, preparations and uses thereof” (GENFIT, priority 2011, dated 2015)
